Data set [1] in a line: Intrinsic clearance in human liver microsome measured per mg of protein. It is filed as ADME. The conditions noted are these: liver microsomes.
Data set [2] can be described thus: Intrinsic clearance in rat liver microsome measured per mg of protein. The following applies: liver microsomes. The data set is classed as ADME. (In general: Liver microsomes are vesicles of endoplasmic reticulum, rich in cytochrome P450 enzymes.)
A short description of data set [3]: Distribution coefficient, log D of the compound. It is filed as physicochemical. The conditions noted are these: octanol/water.
Data set [4] is described as follows: Half life in rat at 3 mg/kg, po. The data set is classed as ADME, organism-based. Also noted: dose 3 mg/kg, route oral. The conditions noted are these: in vivo.
A short description of data set [5]: Oral bioavailability in rat at 3 mg/kg. It is filed as ADME, organism-based. The conditions noted are these: in vivo.
Data set [6] is described as follows: AUC in rat at 1 mg/kg, iv. The conditions noted are these: plasma. The data set is classed as ADME, organism-based. Also noted: dose 1 mg/kg, route intravenous.
The nature of data set [7]: Tmax in rat at 3 mg/kg, po. The data set is classed as ADME, organism-based. Also noted: dose 3 mg/kg, route oral. The following applies: in vivo.
The nature of data set [8]: Cmax in rat at 3 mg/kg, po. The conditions noted are these: in vivo. Also on record: dose 3 mg/kg, route oral. The data set is classed as ADME, organism-based.
Data set [9] can be described thus: Clearance in rat at 1 mg/kg, iv. It is filed as ADME, organism-based. Also noted: dose 1 mg/kg, route intravenous. The conditions noted are these: in vivo.
Data set [10] can be described thus: AUC in rat at 3 mg/kg, po. It is filed as ADME, organism-based. Also on record: dose 3 mg/kg, route oral. The conditions noted are these: plasma.
Data set [11] in a line: Volume of distribution at steady state in rat at 1 mg/kg, iv. The data set is classed as ADME, organism-based. Also on record: dose 1 mg/kg, route intravenous. The conditions noted are these: in vivo, read-out: Vdss.
Data set [12] is described as follows: Half life in rat at 1 mg/kg, iv. It is filed as ADME, organism-based. Also noted: dose 1 mg/kg, route intravenous. The conditions noted are these: in vivo.

Molecules are shown by their SMILES.

`CCCCCCCc1nc(-c2ccc(CNC(=O)[C@H]3NCC[C@@H]3O)cc2)no1`: the microsomal CLint is 45 µL/min/mg in data set [1] and 60 µL/min/mg in data set [2]. Further, in data set [3], the logD is 3.7.

For `C[C@H](NC(=O)[C@H]1NCC[C@@H]1O)c1ccc(-c2noc(CCC3CCCC3)n2)cc1`, the half-life in data set [4] was 453 min; in data set [12], 258 min. Further, in data set [5], the bioavailability is 17.6%. For the same compound, the exposure (AUC) was determined as 439 ng·h/mL in [6] and 232 ng·h/mL in data set [10]. Also, the values for the microsomal CLint in data set [1] and in data set [2] were 12 µL/min/mg and 49.5 µL/min/mg, respectively. The Tmax in data set [7] was determined as 19.8 min. In [8], the peak level (Cmax) was 82.5 ng/mL. The same compound had a logD in [3] of 2.9. The compound further gave a clearance in data set [9] of 37.1 mL/min/kg. Besides, the Vd in data set [11] turned out to be 5.55 L/kg.

On to `C[C@H](NC(=O)[C@H]1NCC[C@@H]1O)c1ccc(-c2noc(CCC3CCCCC3)n2)cc1`, for which the figures for the microsomal CLint in [1] and in [2] were less than 4.5 µL/min/mg and 50.2 µL/min/mg, respectively. In data set [3], this compound had a log distribution coefficient (logD) of 3.6.

In the case of `CC[C@H](NC(=O)[C@H]1NCC[C@@H]1O)c1ccc(-c2noc(CCC3CCCCC3)n2)cc1`, the half-life in data set [4] and in data set [12] was 98.4 min throughout. In data set [5], this compound yielded a bioavailability of 15.3%. Further, the AUC worked out at 204 ng·h/mL in [6] and 94.8 ng·h/mL in data set [10]. Besides, the figures for the intrinsic clearance (microsomal CLint) in [1] and in [2] were 10 µL/min/mg and 38.8 µL/min/mg, respectively. The time of peak concentration (Tmax) in data set [7] came to 45 min. In data set [8], this compound returned a Cmax of 37.5 ng/mL. This compound had a logD in data set [3] of 4.3. In addition, the clearance in data set [9] worked out at 81.8 mL/min/kg. The Vd in data set [11] amounted to 7.86 L/kg.

Usually microsomal CLint stands for a measure of how fast metabolising enzymes remove a compound, apart from limits set by blood flow. By logD is commonly meant lipophilicity at a set pH, counting ionised and neutral species. What is called half-life is the time needed for the level to fall by half in the phase considered. In general, bioavailability refers to the share of a dose that reaches the circulation, judged against a reference dose that is usually intravenous. The AUC is concentration integrated over time. A higher AUC goes with more exposure. By Tmax is commonly meant the time from dosing to the highest level. As a reminder, the Cmax is the highest concentration seen after dosing. Usually clearance stands for the volume of plasma or blood freed of the substance per unit of time. Read a low clearance as inefficient removal.

The record behind these values is ChEMBL document CHEMBL1208743, “Discovery of novel sphingosine kinase-1 inhibitors. Part 2” (Bioorg Med Chem Lett, 2010).
